Counter-ions that a name gives are not always drawn.
How the values were obtained:
[1] = Kinematic viscosity at 40 C of surfactant base formulation with added agent (Cannon viscometer); type: physicochemical; settings: for Lowest viscosity achieved (cSt): Table 1, base formulation 24% sodium undecyl sulfate, 6% lauramidopropyl betaine, 1.6% perfume, agent at 2%, 4%, 6%, 8%, 40° C.; for Kinematic viscosity at 40 C. [cSt], 2% oil: agent added at 2% to base formulation; for Kinematic viscosity at 40 C. [cSt], 4% oil: agent added at 4% to base formulation; for Kinematic viscosity at 40 C. [cSt], 6% oil: agent added at 6% to base formulation; for Kinematic viscosity at 40 C. [cSt], 8% oil: agent added at 8% to base formulation
Text: Referring to Tables 1 and 2, the base formulations were made by mixing 1.6% perfume, 24% sodium undecyl sulfate (CAS#1072-24-8) active, 6% lauramidopropyl betaine (CAS#4292-10-8) active and 60.4% deionized water which leaves 8% unfilled for the addition of a viscosity reducing agent (the balance being filled in by distilled water). For all compositions, the surfactant, water and additives including viscosity reducing agents were expected to be in a single phase.
The agents from Tables 1 and 2 were added to the base formulation at a percentage of 2%, 4%, 6%, and 8% into the above surfactant solution. The subsequent formulations were vortexed and put into oven at 60° C. overnight to form homogeneous solution. The viscosities of the formulations were measured with calibrated viscometers (Size 200/350/450) from Cannon Instrument Company (2139 High Tech Road, State College, Pa., USA, 16803).
After the equilibration, the formulations were drawn to reach the starting mark with a rubber suction bulb and the flow time between the starting mark and end mark was recorded for calculation. Each formulation was measured three times to calculate average and standard deviation. Between samples, viscometer was cleaned with water and acetone to rinse off residual.
Viscosity values were calculated based on the equation:
Viscosity (mm^2/s·(cSt))=Time (s)*Constant (mm^2/s^2·(cSt/s))
The time in the above equation is the flow time recorded in the experiment and the constant numbers for each calibrated viscometer were obtained from the manuals. […]
The viscosities of the formulations are measured with calibrated viscometers (Size 200/350/450) from Cannon Instrument Company (2139 High Tech Road, State College, Pa., USA, 16803). Prior to the measurement, the formulations are equilibrated in the viscometer reservoir for 30 min at 40° C. in water bath to ensure a homogeneous temperature is reached in the system. […]

[2] = Visual cloudiness of surfactant formulation with added agent after 20:1 dilution with water; type: physicochemical; parameters: key: Samples that appeared cloudy (turbid) within less than a day were noted as cloudy (“Yes”); Samples that did not appear cloudy (turbid) within less than a day were noted as not cloudy (“No”); settings: 0.5 g formula, 10 ml deionized water; for Cloudy at 1:20 dilution at 2%, 4%, and/or 6%: Table 3, visual, within less than a day; for Added at 2%: cloudy at 20:1 dilution: agent at 2%; for Added at 4%: cloudy at 20:1 dilution: agent at 4%; for Added at 6%: cloudy at 20:1 dilution: agent at 6%; for Added at 8%: cloudy at 20:1 dilution: agent at 8%
Protocol: Now referring to Tables 3 and 4, the following surfactant formulations were made by mixing 1.6% perfume, 24% sodium undecyl sulfate (CAS#1072-24-8) active, 6% lauramidopropyl betaine (CAS#4292-10-8) active, and 60.4% deionized water which leaves 8% unfilled for the addition of the listed agents (the balance being filled in by distilled water). The agents were added at a percentage of 2%, 4%, 6%, and 8% into the above surfactant formulation. The resulting formulations were vortexed and put into oven at 60° C. overnight to form homogeneous solution. For all formulations, the surfactant, water and additives, including the added agents, were expected to be in a single phase.
The resulting formulations were weighed out in a scintillation vial combined with 10 ml of water to achieve a representative dilution during use: 0.5 g formula, 10 ml deionized water for 20:1 dilution. After the combination of the ingredients, the vial was vigorously shaken by hand and the samples were visually inspected by looking at the solution against a dark background. Samples that appeared cloudy (turbid) within less than a day were noted as cloudy (“Yes”). […] Samples that appeared cloudy at the 20:1 dilution for any of the 2%, 4% or 6% concentration of oil may be most desirable by requiring a limited amount of the agent to be added, limiting cost and trade-offs associated with higher levels.
The appearance of a cloudy formulation at 1:20 dilution at 2%, 4%, and/or 6% can signal improved deposition of surfactant soluble active agents during consumer use.

| Compound | Lowest viscosity achieved (cSt) [1] [cSt] | Kinematic viscosity at 40 C. [cSt], 2% oil [1] [cSt] | Kinematic viscosity at 40 C. [cSt], 4% oil [1] [cSt] | Kinematic viscosity at 40 C. [cSt], 6% oil [1] [cSt] | Kinematic viscosity at 40 C. [cSt], 8% oil [1] [cSt] | Cloudy at 1:20 dilution at 2%, 4%, and/or 6% [2] | Added at 2%: cloudy at 20:1 dilution [2] | Added at 4%: cloudy at 20:1 dilution [2] | Added at 6%: cloudy at 20:1 dilution [2] | Added at 8%: cloudy at 20:1 dilution [2] |
| --- | --- | --- | --- | --- | --- | --- | --- | --- | --- | --- |
| C=CC(C)(CCC=C(C)C)OC(=O)C(C)C (centres unmarked) [Linalyl Iso Butyrate] | 38 | 223.4 | 73.0 | 37.7 | 39.9 | Yes | No | No | Yes | Yes |
| CC1=CCC(C(C)C)=CC1 [gamma-Terpinene] | 32 | 238.0 | 65.0 | 31.7 | – | Yes | No | No | Yes | Yes |
| CCC(=O)O[C@@H]1C[C@H]2CC[C@]1(C)C2(C)C (racemic) [Iso Bornyl Propionate] | 463 | 463.1 | – | – | – | – | – | – | – | – |
| CCC(=O)OC1CC2CC1C1CC=CC21 (centres unmarked) [Cyclaprop] | 404 | 404.2 | – | – | – | No | No | No | – | – |
| CC(=O)CCc1ccc(O)cc1 [Raspberry Ketone] | 33 | 151.9 | 107.4 | 54.0 | 33.0 | – | – | – | – | – |
| CCCCCCCC(OC)OC [1,1-Dimethoxyoctane] | 308 | 500.7 | 308.1 | – | – | – | – | – | – | – |
| CCCCCCC1C(=O)CCC1C(=O)OC (centres unmarked) [Dihyro Iso Jasmonate] | 119 | 334.9 | 119.1 | – | – | No | No | – | – | – |
| CCC(CC(C)CC)=NO (centres unmarked) [5-Methyl-3-Heptanone Oxime] | 246 | 246.3 | – | – | – | – | – | – | – | – |
| CCCCCCCCCCCCCCCC [Hexadecane] | 18 | 21.1 | 18.1 | – | – | No | No | No | – | – |
| C=C(C)[C@H]1CC=C(C)CC1 [Dipentene] | 35 | 307.6 | 74.5 | 35.1 | 42.6 | Yes | No | No | Yes | Yes |
| CC1=CC=C(C(C)C)CC1 [alpha-Terpinene] | 42 | 324.4 | 96.0 | 41.5 | 46.7 | Yes | No | No | Yes | Yes |
| CC(C)COC(=O)c1ccccc1O [Iso Butyl Salicylate] | 409 | 408.7 | – | – | – | No | No | No | – | – |
| CC(=O)OCCC(C)CCC=C(C)C (centres unmarked) [Citronellyl Acetate] | 363 | 362.7 | – | – | – | No | No | – | – | – |
| CC(C)CC=C(C=O)C(C)C [2-Isopropyl-5-methyl-2-hexenal] | 332 | 332.3 | – | – | – | No | No | No | – | – |
| CC(CC=O)CCCC(C)(C)O (centres unmarked) [Hydroxycitronellal] | 34 | 310.8 | 145.4 | 65.9 | 34.1 | – | – | – | – | – |
| CC(C)=CCC/C(C)=C/COC(=O)Cc1ccccc1 [Geranyl Phenyl Acetate] | 34 | 224.0 | 76.0 | 34.3 | 36.6 | Yes | Yes | Yes | Yes | Yes |
| CCOC(=O)CC(O)(CC(=O)OCC)C(=O)OCC [Triethyl Citrate] | 41 | 269.4 | 136.6 | 66.6 | 40.5 | – | – | – | – | – |
| CCCCCC1(C)CCC(C)(C)C1=O (centres unmarked) [Veloutone] | 47 | 260.2 | 129.1 | 56.3 | 47.3 | Yes | No | No | Yes | Yes |
| CCCCCC(=O)OCC(C)C [Isobutyl Hexanoate] | 109 | 390.0 | 177.9 | 140.9 | 109.4 | No | No | No | No | Yes |
| COC(C)(C)C1CC=C(C)CC1 (centres unmarked) [Orange Flower Ether] | 419 | 552.2 | 418.8 | – | – | – | – | – | – | – |
| C=C(C)[C@H]1CC=C(C)CC1 [Limonene] | 86 | 366.5 | 166.8 | 97.5 | 86.4 | – | – | – | – | – |
| CC12CCC(CC1=O)C2(C)C (centres unmarked) [Camphor Gum] | 127 | 365.8 | 127.2 | – | – | – | – | – | – | – |
| CCO [Ethanol] | 29 | 205.6 | 111.0 | 50.8 | 29.2 | – | – | – | – | – |
